Laboratory results taken from patent US4859779A, “Dopamine-β-hydroxylase inhibitors” (SmithKline Beckman Corporation, priority 1989, dated 1989).
Where a name gives a salt, the structure may show the parent alone.

Experiments:
DBH = target: T1, DBH (Homo sapiens, UniProt P09172); details: literature reports; cited from earlier work
T1 sequence (P09172 1-617): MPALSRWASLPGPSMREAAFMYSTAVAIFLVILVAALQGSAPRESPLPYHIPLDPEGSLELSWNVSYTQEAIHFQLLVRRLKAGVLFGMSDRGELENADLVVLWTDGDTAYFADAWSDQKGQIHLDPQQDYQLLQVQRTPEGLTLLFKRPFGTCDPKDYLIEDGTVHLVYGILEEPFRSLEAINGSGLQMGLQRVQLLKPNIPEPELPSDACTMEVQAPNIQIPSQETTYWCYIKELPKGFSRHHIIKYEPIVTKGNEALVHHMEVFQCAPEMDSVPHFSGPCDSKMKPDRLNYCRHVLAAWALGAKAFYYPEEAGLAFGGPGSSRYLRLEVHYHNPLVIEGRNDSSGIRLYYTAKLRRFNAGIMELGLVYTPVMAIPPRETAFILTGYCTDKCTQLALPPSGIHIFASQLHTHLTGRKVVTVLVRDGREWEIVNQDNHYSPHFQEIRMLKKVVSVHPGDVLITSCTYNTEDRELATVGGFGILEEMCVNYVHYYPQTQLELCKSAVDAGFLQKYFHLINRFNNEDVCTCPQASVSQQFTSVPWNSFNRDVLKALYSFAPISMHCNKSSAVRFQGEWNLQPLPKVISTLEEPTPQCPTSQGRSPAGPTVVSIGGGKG

[1] = system: spontaneously hypertensive rats; test: mean arterial blood pressure in spontaneously hypertensive rats (indwelling tail artery cannulae); type: in vivo, rat; details: 50 mg/kg intraperitoneally
Method: Further, spontaneously hypertensive rats were treated with a suspension or solution of N-(2-aminoethyl)-1-(3,5-difluorobenzyl)-2-mercaptoimidazole-5-carboxamide,formate at a dose of 50 mg/kg intraperitoneally, and mean arterial blood pressure was monitored for 260 minutes using indwelling cannulae in the tail arteries.

[2] = Ehrreich et al., 1976; cited from earlier work

For `O=C(O)c1ccc(CCCCCl)cn1` [5-(4-chlorobutyl) picolinic acid], the “DBH inhibition (in words)” value (DBH) is listed as “inhibit DBH”.
For `CN(C)C(=S)SCc1ccc(C(=O)O)nc1` [5-(dimethyldithiocarbamoylmethyl)picolinic acid], the “DBH inhibition (in words)” value (DBH) is given as “DBH inhibitors”.
In the case of `NCCNC(=O)c1cnc(S)n1Cc1cc(F)cc(F)c1` [N-(2-Aminoethyl)-1-(3,5-difluorobenzyl)-2-mercaptoimidazole-5-carboxamide,formate], the “blood pressure reduction compared to vehicle-treated controls” value ([1]; suspension or solution, mean arterial blood pressure, within 30 minutes following treatment) is reported as “significant blood pressure reductions” and the “time to significant blood pressure reduction” value ([1]; versus vehicle-treated controls) is reported as at most 30 min.
In the case of `O=C(O)c1ccc(CCC(Br)CBr)cn1` (stereo not drawn) [5-(3,4-dibromobutyl)picolinic acid], the “DBH inhibition (in words)” value (DBH) is listed as “DBH inhibitors”.
In the case of `CCCCc1ccc(C(N)=O)nc1` [Bupicomide, 5-(n-butyl)picolinamine], the “DBH inhibition (in words)” value (DBH) is listed as “DBH inhibitor” and the antihypertensive activity [2] is listed as “antihypertensive activity”.
In the case of `NOCc1ccccc1` [Benzyloxyamine], the “DBH inhibition (in words)” value (DBH) is listed as “apparently act as competitive inhibitors”.
For `NNCc1ccccc1` [benzylhydrazine], the “DBH inhibition (in words)” value (DBH) is listed as “apparently act as competitive inhibitors”.
